Assay results from patent US20060084599A1, “Compositions, methods and kits relating to notch signaling” (Maine Medical Center, priority 2003, published 2006).
Marks after values point to notes of the source that are not given here.

Key:
[1] = test system: NIH 3T3 cell transfectants; assay: Colony formation in soft agar (anchorage-independent growth); assay type: cell-based, murine; conditions: stable NIH 3T3 cell transfectants expressing the ligand
Procedure: Clonal populations of NIH 3T3 cells stably transfected with vector control, soluble Jagged1 (sJ1), constitutively active Notch1 (caN1), constitutively active Notch 2 (caN2), dominant negative Notch 1 (dnN1), dominant negative Notch 2 (dnN2), an oncogenic mutant of FGF1 engineered with the FGF4 signal peptide sequence (hst-β (FGF4):FGF1), or constitutively active oncogenic Ras construct (caRas), were plated on 6 cm tissue culture dishes with 0.5% agar in an overlay containing DMEM (Gibco BRL) media, 10% bovine calf serum (BCS; Hyclone), and 0.33% agar at 1.5×10^3 cells/dish. As indicated, some dishes were also treated with 1 μM of the FGFR1-specific inhibitor, PD166866 (Panek et al., 1998, J. Pharmacol. Exp. Ther. 286: 569-577) and/or 10 ng/ml recombinant human FGF1 and 10 U/ml heparin (Sigma). Cells were fed with 0.5 ml of media with or without FGF1 and/or the FGFR1-specific inhibitor every 3 days as indicated. Twenty days after plating, colonies were stained with p-iodonitrotetrazolium violet (Sigma) for visualization. Quantitation of colony formation was achieved by counting all p-iodonitrotetrazolium violet-stained colonies consisting of more than 4 cells under a Zeiss Stemi SVII Apo dissecting microscope.
Anchorage-Dependent and -Independent Cell Growth Assays. Approximately 3×10^4 cells were plated on fibronectin (10 μg/cm^2)-coated in 12-well cell culture dishes (Falcon) in DMEM containing 10% BCS (v/v) (Hyclone). Three wells of the individual NIH 3T3 cell transfectants were harvested every third day and cell number was quantitated using a hemocytometer. Anchorage-independent cell growth was evaluated by plating in duplicate approximately 1.7×10^3 cells in DMEM containing 0.5% (w/v) agar (Sigma) 10% (v/v) BCS into 5 cm plastic dishes (Falcon) as previously described (Small et al., 2003, J. Biol. Chem. 278:16405-16413).

NCSC populations = assay: Clonogenic differentiation assay of NCSC: ligand pre-incubation, then BMP2 challenge; assay type: cell-based, mouse; conditions: then 1 ng/ml BMP2 seven days, mean ± SD
Procedure: Clonogenic assays were performed as described (Stemple et al., 1992, Cell 71:973-985). Briefly, populations of murine NCSC were plated at a clonal density and maintained for a maximum of 14 days in Morrison media supplemented with 15% chick embryo extract (Morrison et al., 1999, Cell 96:737-749). The resulting clones were fixed in an acetic acid:ethanol solution (2:1) and stained with antibodies against peripherin (Chemicon) to detect neurons, smooth muscle actin (Sigma) to detect myofibroblasts, and GFAP (Chemicon) to detect Schwann cells. Clones were scored based on the appearance of just one phenotypic representative. The number and percentage of clones containing neurons only (N), Schwann cells only (S), myofibroblasts only (M), N+S, N+M, N+S+M, and S+M were scored at day 14 unless otherwise stated. The production of each representative phenotype in each individual clone was also scored to complement the clonal population assay.
NCSC Retain Neurogenic capacity in the presence of sJ1. A clonogenic differentiation assay was performed using mouse NSCS populations as described previously (Kubu et al., 2002, Dev. Biol. 244:199-214; Stemple et al., 1992, Cell 71:973-985). The cells were incubated in Stemple media (Stemple et al., 1992) with or without 5 nM sDl1 or 7.5 nM sJ1 for the time periods set forth in Table 1. After the initial incubation period, cells were washed and neuronal differentiation was challenged in the presence of 1 ng/ml BMP2 for an additional seven days. The resulting clones were fixed and stained for detection of neural crest markers. The data disclosed in Table 1 is presented as the percentage of glial-only, neuron-only, and neuron colonies containing either smooth muscle or glial markers as the mean ± standard deviation (SD) of three experiments originating from three independent cell isolations. Note the retention of neurogenic differentiation capacity in sJ1-treated cells (*=p<0.01) compared with the sDl1-treated cells.

Src = Src pY418 immunoblot; assay type: cell-based, mouse; conditions: stable NIH 3T3 cell transfectants expressing the ligand
Procedure: Immunoblot Analysis. Cell lysates from insert-less vector sDl1 and sJ1 NIH 3T3 cell transfectants were prepared in 20 mM Tris HCl, pH 7.5, containing 300 mM sucrose, 60 mM—KCl, 15 mM NaCl, 0.5 mM EDTA, 0.5% (v/v) Triton X-100, 1 mM phenylmethylsulfonyl fluoride, 10 μg/ml leupeptin, 2 μg/ml aprotinin, 0.1% (w/v) deoxycholic acid and 1 mM sodium orthovanadate. Samples of equal protein content were subjected to SDS-PAGE and immunoblot analysis was performed as previously described (Small et al., 2001, J. Biol. Chem. 276:32022-32030) using either a rabbit anti-Src [pY418] phosphospecific antibody (Biosource International), a rabbit anti-total Src antibody (Santa Cruz Biotechnology), a rabbit polyclonal anti-cortactin antibody (a gift from Dr. Xi Zhan, American Red Cross), or an anti-phosphotyrosine antibody (Upstate). Immunoprecipitation of cortactin was performed as previously described (Zhan et al., 1993, J. Biol. Chem. 268:24427-24431).

[2] = test system: CSL1-dependent transcription; assay: Dual luciferase reporter assay of CSL1-dependent transcription (Example 2); assay type: cell-based, murine; conditions: for CSL1-dependent transcription, level relative to control: thrombin on full-length Jagged1 NIH 3T3 transfectants, sJ1 expression, 10 ng/ml exogenous FGF1
Procedure: Insert-less vector control and sJ1 NIH 3T3 cell transfectants (approximately 3×10^4) were plated on fibronectin-coated (10 μg/cm^2) cell culture dishes and the cells were transiently transfected at approximately 50% confluency with 500 ng of a luciferase construct containing four tandem copies of the CBF1 response element (Small et al., 2001, J. Biol. Chem. 276:32022-32030).
Cotransfection with 100 ng of the TK Renilla (Promega) construct was used as an internal control for transfection efficiency using Fugene 6 (Roche), according to the manufacturer's instructions. Cells were treated with or without 10, […] hours after transfection, harvested 48 hours after the transfection and luciferase/renilla activity measured using the Dual Luciferase Reporter Assay System (Promega). Each experiment was performed in triplicate.

[3] = 5 nM sDl1 or 7.5 nM sJ1 for 24 hrs

sJ1: Soluble Jagged1, amino acid residues about 1 to 1067 (SEQ ID NO:3) of full-length human Jagged1
anchorage-independent growth of transfectants [1]: form colonies in soft agar | Glial-Only colonies (NCSC populations; [3]): 0% | Neuron-Containing colonies (NCSC populations; [3]): 71.4 ± 6.2%* | Neuron-Only colonies (NCSC populations; [3]): 54.4 ± 8.4%* | Glial-Only colonies (NCSC populations; 7.5 nM sJ1 for 72 hrs): 0.8 ± 1.4%* | Neuron-Containing colonies (NCSC populations; 7.5 nM sJ1 for 72 hrs): 74.8 ± 16.3%* | Neuron-Only colonies (NCSC populations; 7.5 nM sJ1 for 72 hrs): 42.8 ± 6.6%* | Glial-Only colonies (NCSC populations; 7.5 nM sJ1 for 120 hrs): 5.82 ± 3.4%* | Neuron-Containing colonies (NCSC populations; 7.5 nM sJ1 for 120 hrs): 52.01 ± 14.1%* | Neuron-Only colonies (NCSC populations; 7.5 nM sJ1 for 120 hrs): 13.43 ± 6.5%* | Glial-Only colonies (NCSC populations; 7.5 nM sJ1 for 168 hrs): 13.3 ± 4.5%* | Neuron-Containing colonies (NCSC populations; 7.5 nM sJ1 for 168 hrs): 35.03 ± 9.1% | Neuron-Only colonies (NCSC populations; 7.5 nM sJ1 for 168 hrs): 6.5 ± 1.3%* | level of active Src (Src): increase in the level of active Src | CSL1-dependent transcription, level relative to control [2]: approximately 25 % of the control level

thrombin
effect on Notch-dependent CSL1 activity ([2]; full-length Jagged1 NIH 3T3 cell transfectants): able to reduce the level of Notch-dependent CSL1 activity in a dose-dependent manner | CSL1-dependent transcription, level relative to control [2]: approximately 75 % of the control level

B1: sDl1: soluble non-transmembrane form (extracellular domain) of the Notch ligand Delta1 (protein)
chain: QVWSSGVFELKLQEFVNKKGLLGNRNCCRGGAGPPPCACRTFFRVCLKHYQASVSPEPPCTYGSAVTPVLGVDSFSLPDGGGADSAFSNPIRFPFGFTWPGTFSLIIEALHTDSPDDLATENPERLISRLATQRHLTVGEEWSQDLHSSGRTDLKYSYRFVCDEHYYGEGCSVFCRPRDDAFGHFTCGERGEKVCNPGWKGPYCTEPICLPGCDEQHGFCDKPGECKCRVGWQGRYCDECIRYPGCLHGTCQQPWQCNCQEGWGGLFCNQDLNYCTHHKPCKNGATCTNTGQGSYTCSCRPGYTGATCELGIDECDPSPCKNGGSCTDLENSYSCTCPPGFYGKICELSAMTCADGPCFNGGRCSDSPDGGYSCRCPVGYSGFNCEKKIDYCSSSPCSNGAKCVDLGDAYLCRCQAGFSGRHCDDNVDDCASSPCANGGTCRDGVNDFSCTCPPGYTGRNCSAPVSRCEHAPCHNGATCHERGHRYVCECARGYGGPNCQFLLPELPPGPAVVDLTEKLEGQGGPFPW
modifications: left off: small tags and cut ends
notes: soluble non-transmembrane form (extracellular domain) of the Notch ligand Delta1
anchorage-independent growth of transfectants [1]: form colonies in soft agar | Glial-Only colonies (NCSC populations; [3]): 57.8 ± 9.9% | Neuron-Containing colonies (NCSC populations; [3]): 7.0 ± 5.7% | Neuron-Only colonies (NCSC populations; [3]): 0% | level of active Src (Src): increase in the level of active Src
